# Experimental data published in ChEMBL document CHEMBL5325501, “Discovery of BWA-522, a First-in-Class and Orally Bioavailable PROTAC Degrader of the Androgen Receptor Targeting N-Terminal Domain for the Treatment of Prostate Cancer” (J Med Chem, 2023).
# Active and inactive are the calls of the source. The rule behind the calls is not given here.
# Tests used:
# [1] = tested on: CWR22R; experiment: Cytotoxicity against human 22Rv1 cells assessed as cell death at 5 uM; format: toxicity, cell-based
# [2] = tested on: PC-3; experiment: Cytotoxicity against human PC-3 cells assessed as cell death at 5 uM; format: toxicity, cell-based; settings: pc-3, 5 µM
# [3] = tested on: Protein cereblon/Androgen receptor (Homo sapiens), P10275+Q96SW2 [UNDEFINED MUTATION]; experiment: PROTAC activity at CRBN/AR-V7 in human […] cells assessed as induction of AR degradation at 0.03 to 1 uM incubated for 24 hrs by Western blot analysis; format: cell-based; settings: dose 0.03-1 µM
# Protein cereblon/Androgen receptor (Homo sapiens), P10275+Q96SW2 [UNDEFINED MUTATION], sequence (P10275 whole entry, looked up, stated change not applied): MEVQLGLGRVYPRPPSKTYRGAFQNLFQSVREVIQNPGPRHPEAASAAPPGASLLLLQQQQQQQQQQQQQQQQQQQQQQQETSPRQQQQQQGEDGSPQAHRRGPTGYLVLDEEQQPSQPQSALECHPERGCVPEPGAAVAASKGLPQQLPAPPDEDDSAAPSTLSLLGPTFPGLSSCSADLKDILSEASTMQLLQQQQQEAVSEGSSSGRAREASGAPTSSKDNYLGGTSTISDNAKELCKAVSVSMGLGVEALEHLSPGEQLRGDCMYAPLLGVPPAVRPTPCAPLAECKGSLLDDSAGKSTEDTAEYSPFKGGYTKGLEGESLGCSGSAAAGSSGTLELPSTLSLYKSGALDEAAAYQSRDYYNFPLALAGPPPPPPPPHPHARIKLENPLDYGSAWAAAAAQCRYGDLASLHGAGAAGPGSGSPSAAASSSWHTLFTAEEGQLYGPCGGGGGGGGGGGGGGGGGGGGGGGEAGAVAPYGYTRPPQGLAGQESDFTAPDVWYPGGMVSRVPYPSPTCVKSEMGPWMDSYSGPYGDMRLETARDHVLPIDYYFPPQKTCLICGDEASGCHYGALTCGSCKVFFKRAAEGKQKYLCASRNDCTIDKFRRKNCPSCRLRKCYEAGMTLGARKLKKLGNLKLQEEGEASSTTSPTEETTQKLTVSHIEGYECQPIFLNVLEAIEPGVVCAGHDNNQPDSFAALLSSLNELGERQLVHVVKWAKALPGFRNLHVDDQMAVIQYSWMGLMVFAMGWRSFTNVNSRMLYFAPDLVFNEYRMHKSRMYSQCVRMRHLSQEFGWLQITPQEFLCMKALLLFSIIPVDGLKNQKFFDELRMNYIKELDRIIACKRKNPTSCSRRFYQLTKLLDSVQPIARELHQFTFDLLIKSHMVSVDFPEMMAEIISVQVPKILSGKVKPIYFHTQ
# Protein cereblon/Androgen receptor (Homo sapiens), P10275+Q96SW2 [UNDEFINED MUTATION], sequence (Q96SW2 whole entry, looked up, stated change not applied): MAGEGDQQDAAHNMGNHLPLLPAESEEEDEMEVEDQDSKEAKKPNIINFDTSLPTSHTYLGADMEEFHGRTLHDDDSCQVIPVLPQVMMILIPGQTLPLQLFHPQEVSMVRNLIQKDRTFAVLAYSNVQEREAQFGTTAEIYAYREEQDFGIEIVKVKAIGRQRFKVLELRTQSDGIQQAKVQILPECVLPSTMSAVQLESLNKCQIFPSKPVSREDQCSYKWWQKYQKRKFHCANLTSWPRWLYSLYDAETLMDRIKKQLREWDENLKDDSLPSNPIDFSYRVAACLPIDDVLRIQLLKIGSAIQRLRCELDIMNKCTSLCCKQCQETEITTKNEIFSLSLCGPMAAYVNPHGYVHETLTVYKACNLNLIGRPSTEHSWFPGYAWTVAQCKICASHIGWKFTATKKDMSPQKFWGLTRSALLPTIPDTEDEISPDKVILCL
# [4] = biological target: T1, Protein cereblon/Androgen receptor (Homo sapiens) (UniProt P10275+Q96SW2); experiment: PROTAC activity at CRBN/full-length AR in human 22Rv1 cells assessed as induction of AR degradation at 0.03 to 1 uM incubated for 24 hrs by Western blot analysis; format: cell-based; settings: dose 0.03-1 µM
# T1 sequence (P10275 whole entry, looked up): as the sequence (P10275 whole entry, looked up, stated change not applied) above
# T1 sequence (Q96SW2 whole entry, looked up): as the sequence (Q96SW2 whole entry, looked up, stated change not applied) above
# [5] = tested on: PC-3; experiment: Cytotoxicity against human PC-3 cells assessed as cell death at high concentration incubated for 24 hrs; format: toxicity, cell-based; settings: pc-3, 24 h
# [6] = biological target: T1, Protein cereblon/Androgen receptor (Homo sapiens); experiment: PROTAC activity at CRBN/full-length AR in human […] cells assessed as induction of AR degradation at 0.03 to 1 uM incubated for 24 hrs by Western blot analysis; format: cell-based; settings: dose 0.03-1 µM
# [7] = Cytotoxicity against human PC-3 cells assessed as inhibition of cell growth incubated for 6 days; format: toxicity, cell-based
# [8] = tested on: Protein cereblon/Androgen receptor (Homo sapiens), P10275+Q96SW2 [UNDEFINED MUTATION]; experiment: PROTAC activity at CRBN/AR-V7 in human 22Rv1 cells assessed as induction of AR degradation at 0.03 to 1 uM incubated for 24 hrs by Western blot analysis; format: cell-based; settings: dose 0.03-1 µM
# [9] = tested on: CWR22R; experiment: Cytotoxicity against human 22Rv1 cells assessed as cell death at high concentration incubated for 24 hrs; format: toxicity, cell-based
# [10] = tested on: LNCaP; experiment: Antitumor activity against human LNCaP cells xenografted in NOD SCID mouse assessed as tumor growth inhibition at 10 mg/kg, po administered daily for 4 weeks relative to control; settings: 672 h, read-out: TGI
# [11] = tested on: RWPE-1; experiment: Cytotoxicity against human RWPE-1 cells assessed as reduction in cell viability incubated for 6 days by CCK8 assay; format: toxicity, cell-based; settings: rwpe-1, 144 h, time 6 day
# [12] = tested on: LNCaP; experiment: Antiproliferative activity against human LNCaP cells assessed as reduction in cell viability incubated for 6 days by CCK-8 assay; format: functional, cell-based; settings: 144 h
# [13] = tested on: LNCaP; experiment: Antitumor activity against human LNCaP cells xenografted in NOD SCID mouse assessed as tumor growth inhibition at 180 mg/kg, po administered daily for 4 weeks relative to control; format: functional; settings: 672 h, read-out: TGI
# [14] = tested on: CWR22R; experiment: Antiproliferative activity against enzalutamide-resistant human 22Rv1 cells assessed as reduction in cell viability incubated for 6 days by CCK-8 assay; format: functional, cell-based; settings: 22Rv1, 144 h
# [15] = tested on: LNCaP; experiment: Inhibition of colony formation in human LNCaP cells at 1 to 10 uM incubated for 2 weeks by crystal violet staining based analysis; format: functional, cell-based; settings: dose 1-10 µM
# [16] = tested on: CWR22R; experiment: Inhibition of colony formation in human 22Rv1 cells at 1 to 10 uM incubated for 2 weeks by crystal violet staining based analysis; format: functional, cell-based; settings: dose 1-10 µM
# [17] = tested on: VCaP; experiment: Antiproliferative activity against human VCaP cells assessed as reduction in cell viability incubated for 6 days by CCK-8 assay; format: functional, cell-based; settings: 144 h
# [18] = Cmax in ICR mouse at 10 mg/kg, po measured by LC-MS/MS analysis; format: ADME, organism-based; set-up: dose 10 mg/kg, route po; settings: in vivo
# [19] = Half-life in ICR mouse at 10 mg/kg, po measured by LC-MS/MS analysis; format: ADME, organism-based; settings: in vivo
# [20] = Oral bioavailability in ICR mouse at 10 mg/kg measured by LC-MS/MS analysis; format: ADME, organism-based; settings: in vivo
# [21] = AUC(0 to t) in ICR mouse at 2 mg/kg, iv measured by LC-MS/MS analysis; format: ADME, organism-based; set-up: dose 2 mg/kg, route iv; settings: in vivo
# [22] = AUC(0 to t) in ICR mouse at 10 mg/kg, po measured by LC-MS/MS analysis; format: ADME, organism-based; set-up: dose 10 mg/kg, route po; settings: in vivo
# [23] = Tmax in ICR mouse at 10 mg/kg, po measured by LC-MS/MS analysis; format: ADME, organism-based; settings: in vivo
# [24] = Clearance in ICR mouse at 2 mg/kg, iv measured by LC-MS/MS analysis; format: ADME, organism-based; settings: in vivo
# [25] = Tmax in ICR mouse at 2 mg/kg, iv measured by LC-MS/MS analysis; format: ADME, organism-based; settings: in vivo
# [26] = Half-life in ICR mouse at 2 mg/kg, iv measured by LC-MS/MS analysis; format: ADME, organism-based; settings: in vivo
# [27] = Cmax in ICR mouse at 2 mg/kg, iv measured by LC-MS/MS analysis; format: ADME, organism-based; set-up: dose 2 mg/kg, route iv; settings: in vivo
# [28] = tested on: von Hippel-Lindau disease tumor suppressor/Androgen receptor (Homo sapiens), P10275+P40337 [UNDEFINED MUTATION]; experiment: PROTAC activity at VHL/AR-V7 in human VCaP cells assessed as induction of AR degradation at 1 uM by Western blot analysis relative to control; format: cell-based
# von Hippel-Lindau disease tumor suppressor/Androgen receptor (Homo sapiens), P10275+P40337 [UNDEFINED MUTATION], sequence (P10275 whole entry, looked up, change not shown): as the sequence (P10275 whole entry, looked up, stated change not applied) above
# von Hippel-Lindau disease tumor suppressor/Androgen receptor (Homo sapiens), P10275+P40337 [UNDEFINED MUTATION], sequence (P40337 whole entry, looked up, change not shown): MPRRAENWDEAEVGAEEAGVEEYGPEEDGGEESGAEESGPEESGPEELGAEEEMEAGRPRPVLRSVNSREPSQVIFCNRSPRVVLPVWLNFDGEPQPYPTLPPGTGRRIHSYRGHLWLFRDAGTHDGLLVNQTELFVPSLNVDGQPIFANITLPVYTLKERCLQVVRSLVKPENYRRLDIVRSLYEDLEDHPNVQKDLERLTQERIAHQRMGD
# [29] = biological target: T2, von Hippel-Lindau disease tumor suppressor/Androgen receptor (Homo sapiens, UniProt P10275+P40337); experiment: PROTAC activity at VHL/full-length AR in human LNCaP cells assessed as induction of AR degradation at 5 uM by Western blot analysis relative to control; format: cell-based
# Target sequence in this assay (P10275 whole entry, looked up): as the sequence (P10275 whole entry, looked up, stated change not applied) above
# Target sequence in this assay (P40337 whole entry, looked up): as the sequence (P40337 whole entry, looked up, change not shown) above
# [30] = biological target: T2, von Hippel-Lindau disease tumor suppressor/Androgen receptor; experiment: PROTAC activity at VHL/full-length AR in human VCaP cells assessed as induction of AR degradation at 1 uM by Western blot analysis relative to control; format: cell-based
# Target sequence in this assay (P10275 whole entry, looked up): as the sequence (P10275 whole entry, looked up, stated change not applied) above
# Target sequence in this assay (P40337 whole entry, looked up): as the sequence (P40337 whole entry, looked up, change not shown) above
# [31] = biological target: T2, von Hippel-Lindau disease tumor suppressor/Androgen receptor; experiment: PROTAC activity at VHL/full-length AR in human VCaP cells assessed as induction of AR degradation at 5 uM by Western blot analysis relative to control; format: cell-based
# Target sequence in this assay (P10275 whole entry, looked up): as the sequence (P10275 whole entry, looked up, stated change not applied) above
# Target sequence in this assay (P40337 whole entry, looked up): as the sequence (P40337 whole entry, looked up, change not shown) above
# [32] = tested on: von Hippel-Lindau disease tumor suppressor/Androgen receptor (Homo sapiens), P10275+P40337 [UNDEFINED MUTATION]; experiment: PROTAC activity at VHL/AR-V7 in human VCaP cells assessed as induction of AR degradation at 5 uM by Western blot analysis relative to control; format: cell-based
# [33] = biological target: T2, von Hippel-Lindau disease tumor suppressor/Androgen receptor; experiment: PROTAC activity at VHL/full-length AR in human LNCaP cells assessed as induction of AR degradation at 1 uM by Western blot analysis relative to control; format: cell-based
# Target sequence in this assay (P10275 whole entry, looked up): as the sequence (P10275 whole entry, looked up, stated change not applied) above
# Target sequence in this assay (P40337 whole entry, looked up): as the sequence (P40337 whole entry, looked up, change not shown) above
# [34] = biological target: T2, von Hippel-Lindau disease tumor suppressor/Androgen receptor; experiment: PROTAC activity at VHL/AR-V7 in human 22Rv1 cells assessed as induction of AR degradation by Immunoblot analysis; format: cell-based
# Target sequence in this assay (P10275 whole entry, looked up, change not shown): as the sequence (P10275 whole entry, looked up, stated change not applied) above
# Target sequence in this assay (P40337 whole entry, looked up, change not shown): as the sequence (P40337 whole entry, looked up, change not shown) above
smiles,measurement,setting,value
CC(C)(c1ccc(OCC2CCN(CC3CCN(C4CCN(c5cccc6c5C(=O)N(C5CCC(=O)NC5=O)C6=O)CC4)CC3)CC2)cc1)c1ccc(OC[C@H](O)CCl)cc1 (stereo not given in full),Activity,[1],Toxic
same,Activity,[2],Toxic
CC(C)(c1ccc(OCC2CCN(CC3CCN(C4CCN(c5ccc6c(c5)C(=O)N(C5CCC(=O)NC5=O)C6=O)CC4)CC3)CC2)cc1)c1ccc(OC[C@H](O)CCl)cc1 (stereo not given in full),Activity,[3],inactive
same,Activity,[4],inactive
same,Activity,[5],Toxic
same,Activity,[6],inactive
same,IC50 at 6 days,[7],1030 nM
same,Activity,[8],inactive
same,Activity,[9],Toxic
CNC(=O)c1ccc(N2C(=S)N(c3ccc(C#N)c(C(F)(F)F)c3)C(=O)C2(C)C)cc1F [ENZALUTAMIDE],inhibition in vivo at 10 mg/kg,[10],72%
same,Activity,[11],Non-Toxic
CC(C)(c1ccc(OC[C@H](O)CO)cc1)c1ccc(OC[C@H](O)CCl)cc1,IC50,[12],> 30000 nM
same,inhibition in vivo at 180 mg/kg,[13],43%
same,IC50,[14],> 30000 nM
same,inhibition,[15],inactive
same,inhibition,[16],inactive
same,IC50,[17],> 30000 nM
CC(C)(c1ccc(OCC2CCN(C(=O)CCCNc3ccc4c(c3)C(=O)N(C3CCC(=O)NC3=O)C4=O)CC2)cc1)c1ccc(OC[C@H](O)CCl)cc1 (stereo not given in full),Cmax,[18],130 ng/mL
same,half-life,[19],1.8 h
same,bioavailability,[20],7.8%
same,AUC(0-t),[21],303 ng·h/mL
same,AUC(0-t),[22],113 ng·h/mL
same,Tmax,[23],0.2 h
same,clearance,[24],111 mL/min/kg
same,Tmax,[25],6 min
same,half-life,[26],0.5 h
same,Cmax,[27],518 ng/mL
Cc1ncsc1-c1ccc(CNC(=O)[C@@H]2C[C@@H](O)CN2C(=O)[C@@H](NC(=O)Cn2cc(CCCOc3ccc(C(C)(C)c4ccc(OC[C@H](O)CCl)cc4)cc3)nn2)C(C)(C)C)cc1,Activity,[28],45.9%
same,Activity,[29],27.9%
same,Activity,[30],18.4%
same,Activity,[31],31%
same,Activity,[32],63.3%
same,Activity,[33],17.6%
CC(C)(c1ccc(OCC2CCN(CC3CN(C4CCN(c5cccc6c5C(=O)N(C5CCC(=O)NC5=O)C6=O)CC4)C3)CC2)cc1)c1ccc(OC[C@H](O)CCl)cc1 (stereo not given in full),Cmax,[18],47 ng/mL
same,half-life,[19],20.5 h
same,bioavailability,[20],12.3%
same,AUC(0-t),[21],645 ng·h/mL
same,AUC(0-t),[22],332 ng·h/mL
same,Tmax,[23],2 h
same,clearance,[24],38.6 mL/min/kg
same,Tmax,[25],6 min
same,half-life,[26],13.6 h
same,Cmax,[27],662 ng/mL
Cc1ncsc1-c1ccc([C@H](C)NC(=O)[C@@H]2C[C@@H](O)CN2C(=O)[C@@H](NC(=O)CCCCNC(=O)COc2c(-c3csc(N4CCOCC4)n3)ccc(F)c2F)C(C)(C)C)cc1,EC50,[34],370 nM
Cc1ncsc1-c1ccc(CNC(=O)[C@@H]2C[C@@H](O)CN2C(=O)[C@@H](NC(=O)Cn2cc(CCCCCOc3ccc(C(C)(C)c4ccc(OC[C@H](O)CCl)cc4)cc3)nn2)C(C)(C)C)cc1,Activity,[28],38.1%
same,Activity,[29],31.9%
same,Activity,[30],48.9%
same,Activity,[31],39.6%
same,Activity,[32],48.2%
same,Activity,[33],27.5%
CC(C)(c1ccc(OCC2CCN(CC3CCN(CC4CCN(c5cccc6c5C(=O)N(C5CCC(=O)NC5=O)C6=O)CC4)CC3)CC2)cc1)c1ccc(OC[C@H](O)CCl)cc1 (stereo not given in full),Activity,[1],Toxic
same,Activity,[2],Toxic
CC(C)(c1ccc(OCC2CCN(CC3CCN(CC4CCN(c5ccc6c(c5)C(=O)N(C5CCC(=O)NC5=O)C6=O)CC4)CC3)CC2)cc1)c1ccc(OC[C@H](O)CCl)cc1 (stereo not given in full),Activity,[3],inactive
same,Activity,[4],inactive
same,Activity,[5],Toxic
same,Activity,[6],inactive
same,IC50 at 6 days,[7],1370 nM
same,Activity,[8],inactive
same,Activity,[9],Toxic
Cc1ncsc1-c1ccc(CNC(=O)[C@@H]2C[C@@H](O)CN2C(=O)[C@@H](NC(=O)Cn2cc(CCCCOc3ccc(C(C)(C)c4ccc(OC[C@H](O)CCl)cc4)cc3)nn2)C(C)(C)C)cc1,Activity,[28],56.4%
same,Activity,[29],36.6%
same,Activity,[30],43.2%
same,Activity,[31],53.5%
same,Activity,[32],59.5%
same,Activity,[33],22%
